Results: article PMC6868852, “Molecular cloning and characterization of a grapevine (Vitis vinifera L.) serotonin N-acetyltransferase (VvSNAT2) gene involved in plant defense” (BMC Genomics, 2019)

Tested on: VvSNAT2
Experiment: HPLC product quantification; Lineweaver-Burk
Format: biochemical, Vitis vinifera
Details: acetyl-CoA 0.5 mM; 100 mM potassium phosphate pH 8.8; 30 min at 45 °C (Fig. 3 legend; Methods print below 30 °C)

For NCCc1c[nH]c2ccc(O)cc12 [serotonin], the Km was 392 µM.
